{
  "source": "patent US10226509B2",
  "about": "“Lymphangiogenesis inhibitors for cancer and for graft survival” (TUFTS UNIVERSITY, priority 2014, dated 2019)",
  "key": {"LEC spheroids": {"tested_on": "LEC spheroids", "experiment": "LEC sprouting assay: stimulation by galectins alone", "type": "cell-based, human", "procedure": "(§1) LEC spheroids were generated by seeding primary LECs at passage 4 or 5 in each well of 384-well hanging-drop plates (3D Biomatrix) in complete EGM-2 MV medium containing 0.25% methyl cellulose according to the manufacturer's instructions (750 cells/well). After 18 hours, LEC spheroids were collected, resuspended in serum-free EBM-2 basal medium, and mixed with collagen solution (PureCol collagen, Advanced BioMatrix, 2.2 mg/ml in M199 medium, pH adjusted to 7.4 with NaHCO3 and NaOH). Aliquots of the LEC spheroid/collagen mixture (250 μl/well of 48-well plate) were incubated in the presence or absence of various test agents for 24 hr. At the end of the incubation period, spheroids were stained with Calcein AM (Invitrogen, 1 μg/mL, 37° C., and 30 min). Fluorescent images were acquired using the EVOS FL cell imaging system, pixels were inverted for better visualization and cumulative length of each sprout was calculated. Results were expressed as fold change compared to corresponding controls. It was observed that sprout lengths vary from passages to passages. Test agents used included thiodigalactoside (10 to 50 mM, Carbosynth), 3′-sialyl lactose (2 to 10 mM, Carbosynth), 6′-sialyl lactose (2 to 10 mM, Carbosynth), LY294002 (20 μM, Abeam), U0126 (20 μM, Abeam), PD0325901 (1 μM, Selleckchem), human VEGFR-3-Fc chimera (10 μg/ml, R&D), human VEGFR-2-Fc chimera (10 μg/ml, R&D), Avastin (10 μg/ml, bevacizumab, Genentech/Roche), human control IgG (10 μg/ml, Southern Biotech), anti-human podoplanin functional grade antibody (10 μg/ml, eBioscience), and rat IgG2a κ isotype control functional grade antibody (10 μg/ml, eBioscience).\nTo assess the effect of galectins on LEC sprouting, LEC spheroids were embedded in a collagen matrix and incubated with media containing various test agents. After 24 hours, the cumulative length of the sprouts for each spheroid was quantified by ImageJ. […] Multiple approaches were used to determine whether the stimulatory effect of Gal-8 on LEC sprouting was carbohydrate-dependent."}, "mouse corneas": {"tested_on": "mouse corneas", "experiment": "Corneal mouse micropocket lymphangiogenesis assay", "type": "in vivo", "conditions": "for mean lymphatic vessel areas: 160 ng pellet, seven days", "procedure": "The corneal micropocket lymphangiogenesis assay was performed using implants containing a test agent, hydron (polyhydroxylmethylmethacrylate), and sucralfate (Cao, R., et al. 2011. Nat Protoc 6:817-826; Rogers, M. S., et al. 2007. Nat Protoc 2:2545-2550). Test agents included full-length Gal-8 (40-320 ng/pellet) and VEGF-C (160 ng/pellet). Implants containing hydron and sucralfate alone served as negative controls. The mice were anesthetized by intraperitoneal injection of a mixture of ketamine (90-120 mg/kg) and xylazine (10 mg/kg). The eyes were topically anesthetized with proparacaine and were gently proptosed (forwardly displaced) with forceps. Using a corneal blade and a stereoscope, intrastromal linear keratotomy was performed about 2 mm from the limbus. Using a von Graefe knife (Miltex), a pocket was extended towards the limbus, and the pellet was maneuvered into the pocket. The wound was coated with a veterinary ophthalmic ointment (Akorn) to prevent infection. Mouse corneas were harvested 7 days after pellet implantation, fixed in 4% paraformaldehyde/PBS (1 hour at 4° C.), washed with PBS, and fixed again in iced acetone (15 min at −20° C.). To quantitate the extent of lymphangiogenesis in Prox-1-EGFP reporter mice, flat mounts of the dissected corneas were evaluated by fluorescence microscopy. Fluorescent images were acquired by EVOS FL cell imaging system (Invitrogen), and vessel areas were calculated using the formula (Rogers, M. S., et al. 2007. Nat Protoc 2:2545-2550): vessel area=pellet distance×vessel length×clock hours×[…]. To quantitate the extent of lymphangiogenesis in WT and PDPN-deficient mice, corneas were stained with eFluor 570-anti-mouse LYVE-1 (clone ALY7, eBioScience, and 1:75) in 10% goat serum/0.2% Triton X-100/PBS overnight, 4° C. After several washes with 0.2% Triton X-100/PBS, the corneas were flattened and mounted with VECTASHIELD mounting medium (Vector Laboratories) and evaluated by fluorescence microscopy. In some examples, for comparisons, corneas were stained with Alexa Fluor® 488-anti-mouse CD31 (clone MEC13.3, 1:100, BioLegend) to visualize blood vessels."}, "[1]": {"tested_on": "VEGF-C-induced LEC sprouting", "experiment": "LEC sprouting assay: VEGF-C-induced sprouting", "type": "cell-based, human", "procedure": "as §1\nIn this assay, the LEC spheroids were treated with VEGF-C (50 ng/ml) in the presence or absence of 0.75 μM of Gal-8 for 24 hours, and then accumulated sprout lengths were quantified. […] Synergistic effect of Gal-8 on VEGF-C-induced LEC sprouting was dose-dependent. […] At concentrations >0.5 μM Gal-8, there was no further increase in the degree of VEGF-C-induced lymphangiogenesis (FIG. 4C).\nTo further characterize the role of carbohydrate-mediated recognition in VEGF-C-induced lymphangiogenesis, LEC spheroids were stimulated with VEGF-C (50 ng/ml) in the presence or absence of three different galectin inhibitors. […] Therefore, the data establishes the critical role of Gal-8-mediated carbohydrate-mediated recognition in VEGF-C-induced lymphangiogenesis."}},
  "note": "“Also recorded” adds a separate entry of the source.",
  "data": [
    {"substance": "Gal-8: recombinant galectin-8, tandem-repeat type galectin with two different CRDs", "values": [
      {"measurement": "promotion of LEC sprouting by the agent alone (in words)", "setting": "LEC spheroids; 24 hours", "result": "concentration-dependent and was comparable to that of VEGF-C; also recorded: promotes LEC sprouting"},
      {"measurement": "Hill's coefficient (nH) of galectin-8-mediated LEC sprouting", "setting": "LEC spheroids; dose-response curve", "result": 3.7},
      {"measurement": "EC50", "setting": "LEC spheroids; sprouting activity at 0.75 μM set at 100%, read-out: EC50 of galectin-8-mediated LEC sprouting", "result": 0.52, "unit": "µM"},
      {"measurement": "mean lymphatic vessel areas", "setting": "mouse corneas; PDPN KO mice", "result": 0.28, "unit": "mm^2"},
      {"measurement": "mean lymphatic vessel areas", "setting": "mouse corneas; WT mice", "result": 0.78, "unit": "mm^2"},
      {"measurement": "lymphatic vessel growth, times higher than either VEGF-C pellet or Gal-8 pellet alone", "setting": "mouse corneas; corneas implanted with both VEGF-C and Gal-8 pellets", "result": 2.2, "unit": "times"},
      {"measurement": "lymphangiogenesis induced by pellet in cornea (in words)", "setting": "mouse corneas; one week after implantation, Gal-8 40-320 ng/pellet, VEGF-C 160 ng, WT or Prox1-EGFP mice", "result": "increased in a dose-dependent manner"},
      {"measurement": "effect of Gal-8 pellet on VEGF-C-induced lymphangiogenesis in vivo (in words)", "setting": "mouse corneas; two separate pellets (VEGF-C and Gal-8), Prox1-EGFP reporter mice, one week", "result": "augmented VEGF-C-induced lymphangiogenesis"},
      {"measurement": "VEGF-C-induced LEC sprouting, times higher than VEGF-C alone or Gal-8 alone", "setting": "[1]; VEGF-C 50 ng/ml plus 0.75 μM of Gal-8", "result": 5, "unit": "times"},
      {"measurement": "effect on VEGF-C-induced LEC sprouting (in words)", "setting": "[1]; VEGF-C 50 ng/ml, 24 h", "result": "markedly enhanced"}
    ]}
  ]
}
